Results as given in patent US6939855B2, “Anti-inflammatory compositions and method” (Elan Pharmaceuticals, Inc., priority 1997, dated 2005).

System: human neutrophils
Experiment: Expression of alpha-9 integrin on human neutrophils following activation
Type: cell-based
Conditions: compared to isotype control marker (FIG. 2)
Method: In this experiment, alpha-9 subunit, alpha-4 subunit and beta-1 subunit were measured after reacting human neutrophils with fluorescently labeled antibodies specifically reactive with each of the foregoing subunits.
Formyl-Met-Leu-Phe (fMLP) is an activation factor that is involved in inflammation. […] This increased expression is consistent with alpha-9 involvement in activation of neutrophils during inflammation.

Substance: Formyl-Met-Leu-Phe [fMLP]
- alpha-9 integrin expression following activation: significantly and selectively increased
